PMC11109052, “Metabolism characterization and toxicity of N-hydap, a marine candidate drug for lung cancer therapy by LC–MS method” (Natural Products and Bioprospecting, 2024)

What was measured:
other UGT isoforms = assay: Incubation with recombinant human UGT isoforms: other isoforms; type: in vitro ADME; details: recombinant UGT 2 μg/mL
Procedure: Incubation of N-hydap (2.5 μM) with eight recombinant human CYP enzymes (CYP1A2, CYP2B6, CYP2C9, CYP2C19, CYP2D6, CYP3A4, CYP4A11 and CYP4F2) at three enzyme concentrations (2, 4, and 20 μg/mL) was conducted following the same procedure as described above for microsomes. Subsequently, incubation with N-hydap (1, 2.5, and 6 μM) and twelve recombinant human UGT isoforms (UGT1A1, UGT1A3, UGT1A4, UGT1A6, UGT1A7, UGT1A8, UGT1A9, UGT1A10, UGT2B4, UGT2B7, UGT2B15 and UGT2B17) was performed, with the enzyme concentration used at 2 μg/mL. All reactions were carried out in triplicate.

HLMs = assay: Kinetics of N-hydap glucuronidation in HLMs; type: in vitro ADME, human; details: HLM
Procedure: (§1) Various microsomes including HLMs, HKMs, HIMs, RLMs, RKMs, MLMs and MKMs were involved in CYP and UGT reactions of N-hydap. A typical CYP incubation mixture included 0.5 mg/mL microsomes protein, 3.3 mM glucose-6-phosphate, 3.3 mM MgCl2, 0.4 U/mL glucose-6-phosphate dehydrogenase, and N-hydap (1, 2.5, or 10 μM) in the 50 mM potassium phosphate buffer (KPI, pH 7.4). The incubation mixture was preincubated at 37 °C for 5 min, and the reaction was started by adding NADP to form a NADPH-regenerating system. Simultaneously, the classic UGT reaction system consisted of 50 mM KPI, 5 mM MgCl2, 0.5 mg/mL microsomes, 0.125 mg/mL alamethicin, and 5.25 mg/mL saccharolactone. The reaction was initiated after supplying UDPGA. The CYP and UGT mixtures were incubated at 37 °C in a shaking water bath (80 rpm) for 1.5 h to enhance metabolite formation. To terminate the reaction, an ice-cold solution of Tes (50 ng/mL, dissolved in methanol and used as an internal standard) was added to half of the mixture volume. […]
(§2) The substrate concentrations used for HLMs were 0.05, 0.5, 2, 2.5, 5, 10, 25, 50, and 100 μM. […] The rates of N-hydap-G by enzymes were expressed as nmol/mg/min, representing the amount of metabolites formed per minute per milligram of protein. Kinetic parameters were determined by analyzing the Eadie–Hofstee plots. […]

HKMs = assay: Kinetics of N-hydap glucuronidation in HKMs; type: in vitro ADME, human; details: HKM
Procedure: as §1, §2

HIMs = assay: Kinetics of N-hydap glucuronidation in HIMs; type: in vitro ADME, human; details: HIM
Procedure: as §1, §2

RLMs = assay: Kinetics of N-hydap glucuronidation in RLMs; type: in vitro ADME, rat; details: RLM
Procedure: (§3) In this study, the rats were executed by drawing blood from the abdominal aorta and mice were sacrificed with cervical dislocation before the liver and kidneys were excised. The liver and kidneys were removed, and washed with chilled cleansing solution (contains 8 mM KH2PO4, 5.6 mM EDTA·K2·2H2O, 1 mM DTT and 229.6 μM PMSF), homogenized in a tissue homogenate buffer with a pH of 7.4, (consisting of […], 8 mM K2HPO4, 250 mM sucrose, 1 mM EDTA·K2·2H2O and 229.6 μM PMSF). Subsequently, the homogenate was centrifuged at 10,400 rpm at 4 °C for 15 min, and the supernatant was then centrifuged at 35,000 rpm at 4 °C for 60 min. A 250 mM sucrose buffer was added to the pellet to reconstitute and the resuspension was stored at − 80 °C until use. Microsome protein concentrations were measured by Omni-Easy™ Instant BCA Protein Assay Kit.
(§4) Various microsomes including HLMs, HKMs, HIMs, RLMs, RKMs, MLMs and MKMs were involved in CYP and UGT reactions of N-hydap. […]
as §2

RKMs = assay: Kinetics of N-hydap glucuronidation in RKMs; type: in vitro ADME, rat; details: RKM
Procedure: as §3, §4, §2

MLMs = assay: Kinetics of N-hydap glucuronidation in MLMs; type: in vitro ADME, mouse; details: MLM
Procedure: as §3, §4, §2

MKMs = assay: Kinetics of N-hydap glucuronidation in MKMs; type: in vitro ADME, mouse; details: MKM
Procedure: as §3, §4, §2

UGT1A1 = target: T1, UGT1A1 (Homo sapiens, UniProt P22309); assay: Kinetics of N-hydap glucuronidation by recombinant UGT1A1; type: in vitro ADME
T1 construct: purchased Cypex (Scotland, UK)

UGT1A3 = target: T2, UGT1A3 (Homo sapiens, UniProt P35503); assay: Kinetics of N-hydap glucuronidation by recombinant UGT1A3; type: in vitro ADME
T2 construct: purchased Cypex (Scotland, UK)

[1] = Pharmacokinetics studies in mice (plasma); type: in vivo; details: mice
Procedure: Mice were fasted for 12 h with access to water before drug administration. N-Hydap was dissolved in a solution containing 50% methanol and water. Before administration, the drug was diluted with PBS to achieve concentrations of 5 mg/kg and 2 mg/kg for gastric gavage and tail vein administration, respectively. Blood samples (120 μL) were collected from the orbital venous plexus at 2, 5, 10, 15, 30, 60, 90, 120, 180, and 240 min after N-hydap administration. The blood samples were collected into heparinized micro-centrifuge tubes and immediately centrifuged at 8000 rpm for 5 min at 4 °C. Plasma samples were prepared by adding an internal standard (IS) solution, Tes to the samples, followed by vortexing. The mixtures were then centrifuged at 4 °C and 13,000 rpm for 15 min. The resulting supernatant was dried under vacuum for 3–4 h, and the dry powder was reconstituted with a solution of 50% methanol and water. Finally, the plasma samples were analyzed using LC–MS, following the previously described method.
DAS 2.0 was used to calculate pharmacokinetic parameters using the standard non-compartmental method. All results were presented as mean ± standard deviation and significant differences were analyzed using One-way ANOVA by GraphPad Prism 8. Statistical significance was defined as p < 0.05.

[2] = Distribution studies in mice organs; type: in vivo; details: 30 min and 4 h
Procedure: The heart, liver, spleen, lungs and kidneys were removed from mice after administering a dose of 5 mg/kg through oral gavage and 2 mg/kg through tail vein injection at 30 min and 240 min, followed by homogenization with normal saline. The resulting homogenate was centrifuged at 4 °C, 13,000 rpm for 20 min, and the supernatant was then mixed with the internal standard by vortexing. The mixtures were centrifuged at 4 °C, 13,000 rpm for 15 min. The resulting supernatant was then subjected to vacuum drying for 3–4 h. Lastly, the dried powder was reconstituted with a mixture of 50% methanol and water, and then centrifuged for LC–MS testing.

[3] = parameters: method as in PMID 17513814; details: 2nd-line therapy of SCLC; cited from earlier work
SCLC = test system: SCLC; parameters: method as in PMID 33683919; details: 3rd-line therapy of SCLC; cited from earlier work
[4] = substrate: CC1CCC2C(C=CC(C)C2C(=O)c2c(O)c(C3(O)CCC(O)C4OC43)cn(O)c2=O)C1; assay: Kinetics of N-hydap glucuronidation by recombinant UGT1A3; type: in vitro ADME, human; details: other: glucuronidation, pH 7.4, 37.0 °C
[5] = substrate: CC1CCC2C(C=CC(C)C2C(=O)c2c(O)c(C3(O)CCC(O)C4OC43)cn(O)c2=O)C1; assay: Kinetics of N-hydap glucuronidation by recombinant UGT1A1; type: in vitro ADME, human; details: other: glucuronidation, pH 7.4, 37.0 °C

CC1CCC2C(C=CC(C)C2C(=O)c2c(O)c(C3(O)CCC(OC4OC(C(=O)O)C(O)C(O)C4O)C4OC43)cn(O)c2=O)C1 (stereo not shown) [N-hydap-G]
glucuronide detected after incubation with other UGT isoforms (other UGT isoforms): negligible amount | Vmax (HLMs): 5.126 ± 1.27 peak area ratio/min/mg | Vmax (HKMs): 7.210 ± 0.72 peak area ratio/min/mg | Vmax (HIMs): 1.020 ± 0.066 peak area ratio/min/mg | Vmax (RLMs): 0.0567 ± 0.0014 peak area ratio/min/mg | Vmax (RKMs): 0.8051 ± 0.052 peak area ratio/min/mg | Vmax (MLMs): 13.46 ± 1.32 peak area ratio/min/mg | Vmax (MKMs): 3.313 ± 0.51 peak area ratio/min/mg | Vmax (UGT1A1): 4.596 ± 0.37 peak area ratio/min/mg | Vmax (UGT1A3): 10.07 ± 0.98 peak area ratio/min/mg | highest concentration in plasma, Rate (Am/Ai) ([1]; after oral administration of N-hydap 5 mg/kg): 1.632 | highest concentration in plasma, Rate (Am/Ai) ([1]; after tail vein injection of N-hydap 2 mg/kg): 0.085 | maximum plasma concentration after oral gavage relative to intravenous injection, dose-corrected ([1]; 1.632/0.085/2.5): 7.68 times | total distribution ratio, heart ([2]; oral 5 mg/kg): 2.61% | total distribution ratio, kidneys ([2]; oral 5 mg/kg): 17.64% | total distribution ratio, liver ([2]; oral 5 mg/kg): 70.86% | total distribution ratio, lungs ([2]; oral 5 mg/kg): 7.33% | total distribution ratio, spleen ([2]; oral 5 mg/kg): 1.56% | total distribution ratio, heart ([2]; tail vein injection 2 mg/kg): 11.92% | total distribution ratio, kidneys ([2]; tail vein injection 2 mg/kg): 16.73% | total distribution ratio, liver ([2]; tail vein injection 2 mg/kg): 56.90% | total distribution ratio, lungs ([2]; tail vein injection 2 mg/kg): 9.14% | total distribution ratio, spleen ([2]; tail vein injection 2 mg/kg): 5.31%

CC[C@@]1(O)C(=O)OCc2c1cc1n(c2=O)Cc2cc3c(CN(C)C)c(O)ccc3nc2-1 [topotecan]
grade 3/4 anemia [3]: 31% | neutropenia [3]: 64% | thrombocytopenia [3]: 18%

nivolumab: 3rd-line therapy for SCLC
overall survival (SCLC): does not prolong overall survival

B1: UGT1A3 (Homo sapiens) (protein)
chain: GKVLVVPIDGSHWLSMREVLRELHARGHQAVVLTPEVNMHIKEENFFTLTTYAISWTQDEFDRHVLGHTQLYFETEHFLKKFFRSMAMLNNMSLVYHRSCVELLHNEALIRHLNATSFDVVLTDPVNLCAAVLAKYLSIPTVFFLRNIPCDLDFKGTQCPNPSSYIPRLLTTNSDHMTFMQRVKNMLYPLALSYICHAFSAPYASLASELFQREVSVVDILSHASVWLFRGDFVMDYPRPIMPNMVFIGGINCANRKPLSQEFEAYINASGEHGIVVFSLGSMVSEIPEKKAMAIADALGKIPQTVLWRYTGTRPSNLANNTILVKWLPQNDLLGHPMTRAFITHAGSHGVYESICNGVPMVMMPLFGDQMDNAKRMETKGAGVTLNVLEMTSEDLENALKAVINDKSYKENIMRLSSLHKDRPVEPLDLAVFWVEFVMRHKGAPHLRPAAHDLTWYQYHSLDVIGFLLAVVLTVAFITFKCCAYGYRKCLGKKGRVKKAHKSKTH
notes: purchased Cypex (Scotland, UK)
Km [4]: 10.68 µM | Vmax/Km [4]: 942.9 µL/min/mg

B2: UGT1A1 (Homo sapiens) (protein)
chain: HAGKILLIPVDGSHWLSMLGAIQQLQQRGHEIVVLAPDASLYIRDGAFYTLKTYPVPFQREDVKESFVSLGHNVFENDSFLQRVIKTYKKIKKDSAMLLSGCSHLLHNKELMASLAESSFDVMLTDPFLPCSPIVAQYLSLPTVFFLHALPCSLEFEATQCPNPFSYVPRPLSSHSDHMTFLQRVKNMLIAFSQNFLCDVVYSPYATLASEFLQREVTVQDLLSSASVWLFRSDFVKDYPRPIMPNMVFVGGINCLHQNPLSQEFEAYINASGEHGIVVFSLGSMVSEIPEKKAMAIADALGKIPQTVLWRYTGTRPSNLANNTILVKWLPQNDLLGHPMTRAFITHAGSHGVYESICNGVPMVMMPLFGDQMDNAKRMETKGAGVTLNVLEMTSEDLENALKAVINDKSYKENIMRLSSLHKDRPVEPLDLAVFWVEFVMRHKGAPHLRPAAHDLTWYQYHSLDVIGFLLAVVLTVAFITFKCCAYGYRKCLGKKGRVKKAHKSKTH
notes: as for B1
Km [5]: 46.43 µM | Vmax/Km [5]: 99.0 µL/min/mg
